# Where two headings read alike, the source gives them in different places.
# Key:
# Format in all cases: cell-based
# HIV-1 WT IN = test: High growth serum assays in cells (WT)
# [1] = system: HIV-1 constructs containing mutant IN Y143R; test: microbe, parasite or virus in culture; conditions: for EC50: Human immunodeficiency virus 1
# Method in brief: (§1)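 Single-round infectivity assay using luciferase-reporter pNLNgoMIVR−ΔEnv.LUC virus carrying site-directed integrase mutants, produced in 293 cells. Activity normalized to infectivity without compound; EC50 from regression fit.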
# [2] = system: HIV-1 constructs containing mutant IN N155H; test: microbe, parasite or virus in culture; conditions: for EC50: Human immunodeficiency virus 1
# Method in brief: as §1
# [3] = system: HIV-1 constructs containing mutant IN G140S-Q148H; test: microbe, parasite or virus in culture; conditions: for EC50: Human immunodeficiency virus 1
# Method in brief: as §1
# [4] = system: HIV-1 constructs containing mutant IN E138K-Q148K; test: Single-round HIV-1 infectivity assay, IN double mutant E138K-Q148K
# Method: (§2) Single-Round HIV-1 Infectivity Assay.
# (§3) Human embryonyl kidney cell culture cell line 293 was acquired from the American type Culture Collection (ATCC).
# (§4) […]. […] The virus-containing supernatants were then harvested, clarified by low-speed centrifugation, filtrated, and diluted for preparation in infection assays. […] After compound incorporation and activation in the cell, 100 μL of virus-stock diluted to achieve a maximum luciferase signal between 0.2 and 1.5 RLUs was added to each well and further incubated at 37° C. for 48 hrs. […] Activity was normalized to infectivity in the absence of target compounds. KaleidaGraph (Synergy Software, Reading, Pa.) was used to perform regression analysis on the data. EC50 values were determined from the fit model.
# pNLNgoMIVR^−ΔEnv.LUC has been described previously (Zhao et al. 2008). The integrase codon reading frame was removed from pNLNgoMIVR^−ΔEnv LUC (between KpnI and SalI sites) and placed between the KpnI and SalI sites of pBluescript II KS+. Using that construct as the wild-type template, we prepared the following HIV-1 Integrase-resistant mutants via the QuikChange II XL (Stratagene, La Jolla, Calif.) site-directed mutagenesis protocol: H51Y, T66I, E92Q, G118R, Y143R, Q148H, Q148K, N155H, R263K, G140S+Q148H, G140A+Q148K, E138K+Q148K, and H51Y+R263K. […]
# [5] = system: HIV-1 constructs containing mutant IN T66I; test: Single-round HIV-1 infectivity assay, IN mutant T66I; conditions: Human immunodeficiency virus 1; Table 8; read-out: EC50 (nM, IN mutants) T66I
# Method: as §2, §3, §4
# (§5) pNLNgoMIVR^−ΔEnv.LUC has been described previously (Zhao et al. 2008). The integrase codon reading frame was removed from pNLNgoMIVR^−ΔEnv LUC (between KpnI and SalI sites) and placed between the KpnI and SalI sites of pBluescript II KS+. Using that construct as the wild-type template, we prepared the following HIV-1 Integrase-resistant mutants via the QuikChange II XL (Stratagene, La Jolla, Calif.) site-directed mutagenesis protocol: H51Y, T66I, E92Q, G118R, Y143R, Q148H, Q148K, N155H, R263K, G140S+Q148H, G140A+Q148K, E138K+Q148K, and H51Y+R263K. The following sense with cognate antisense (not shown) oligonucleotides (Integrated DNA Technologies, Coralville, Iowa) were used in the mutagenesis: H51Y, 5′-[…]-3; T66I, 5′-[…]-3′; E92Q, 5′-[…]-3′; G118R, 5′-[…]-3′; E138K, 5′-[…]-3; G140A, 5′-[…]-3; G140S, 5′-[…]-3′; Y143R, 5′-[…]-3′; Q148H, 5′-[…]-3′; Q148K, 5′-[…]-3; N155H, 5′-[…]-3′; R263K 5′-[…]-3′. The double mutation G140S+Q148H was constructed by using the previously generated Q148H mutant and the appropriate oligonucleotide for the 2nd mutation, G140S. The double mutation G140A+Q148K was made by using the Q148K mutant and the appropriate oligonucleotide for the 2nd mutation, G140A. The double mutation E138K+Q148K was made by using the Q148K mutant and the appropriate oligonucleotide for the 2nd mutation, E138K. The double mutation H51Y+R263K was constructed by using the previously generated H51Y mutant and the appropriate oligonucleotides for the 2nd mutation, R263K. The DNA sequence of each construct was verified independently by DNA sequence determination. The mutant integrase coding sequences from pBluescript II KS+ were then subcloned into pNLNgoMIVR^−ΔEnv LUC (between the KpnI and SalI sites) to produce the full-length mutant HIV-1 Integrase constructs. These DNA sequences were additionally checked independently by DNA sequence determination.
# [6] = system: HIV-1 constructs containing mutant IN E92Q; test: Single-round HIV-1 infectivity assay, IN mutant E92Q; conditions: Human immunodeficiency virus 1; Table 8; read-out: EC50 (nM, IN mutants) E92Q
# Method: as §2, §3, §4, §5
# [7] = system: HIV-1 constructs containing mutant IN H51Y; test: Single-round HIV-1 infectivity assay, IN mutant H51Y; conditions: Human immunodeficiency virus 1; Table 8; read-out: EC50 (nM, IN mutants) H51Y
# Method: as §2, §3, §4, §5
# [8] = system: HIV-1 constructs containing mutant IN H51Y/R263K; test: Single-round HIV-1 infectivity assay, IN double mutant H51Y/R263K; conditions: Human immunodeficiency virus 1; Table 8; read-out: EC50 (nM, IN mutants) H51Y/R263K
# Method: as §2, §3, §4, §5
# [9] = Human immunodeficiency virus 1, read-out: EC50 (nM), Table 9, 10% FBS
# [10] = Human immunodeficiency virus 1, read-out: EC50 (nM), Table 9, 15% FBS
# [11] = Table 3, read-out: EC50 (nM, IN Mutants) Y143R
# [12] = Table 3, read-out: EC50 (nM, IN Mutants) N155H
# [13] = Table 3, G140S-Q148H double mutant, read-out: EC50 (nM, IN Mutants) SH
# [14] = Table 8, read-out: EC50 (nM, IN mutants) Y143R
# [15] = Table 8, read-out: EC50 (nM, IN mutants) N155H
# [16] = Table 8, read-out: EC50 (nM, IN mutants) G140S/Q148H
SMILES,EC50 (HIV-1 WT IN; [9]),EC50 (HIV-1 WT IN; [10]),"EC50 [1, 11]","EC50 [2, 12]","EC50 [3, 13]","Integrase Mutants Y143R, fold-change in EC50 relative to WT [1]","Integrase Mutants N155H, fold-change in EC50 relative to WT [2]","Integrase Mutants SH (G140S-Q148H), fold-change in EC50 relative to WT [3]","Integrase Mutants KK (E138K-Q148K), fold-change in EC50 relative to WT [4]",EC50 [5],"EC50 [1, 14]","EC50 [2, 15]","EC50 [3, 16]",EC50 [6],EC50 [7],EC50 [8]
"COC(=O)CNc1c(C(=O)NCc2ccc(F)cc2F)c(=O)n(O)c2ncccc12 [XZ379, Methyl 2-((3-((2,4-difluorobenzyl)carbamoyl)-1-hydroxy-2-oxo-1,2-dihydro-1,8-naphthyridin-4-yl)amino)acetate]",5 nM,1 nM,4.6 ± 2.2 nM,19 ± 6.9 nM,35.5 ± 15.9 nM,–,–,–,–,–,–,–,–,–,–,–
"O=C(NCc1ccc(F)cc1F)c1c(O)c2cccnc2n(O)c1=O [XZ351, N-(2,4-difluorobenzyl)-1,4-dihydroxy-2-oxo-1,2-dihydro-1,8-naphthyridine-3-carboxamide]",–,–,11.3 ± 1.93 nM,30.5 ± 7.76 nM,308 ± 125 nM,2 x,5 x,50 x,32 x,–,–,–,–,–,–,–
"COC(=O)CCc1cnc2c(c1)c(N)c(C(=O)NCc1ccc(F)cc1F)c(=O)n2O [XZ434, Methyl 3-(5-amino-6-((2,4-difluorobenzyl)carbamoyl)-8-hydroxy-7-oxo-7,8-dihydro-1,8-naphthyridin-3-yl)propanoate]",0.62 ± 0.2 nM,0.6 nM,–,–,–,–,–,–,–,0.53 nM,0.67 nM,2.3 nM,5.3 nM,2 ± 1.1 nM,0.63 nM,2.4 nM
"Nc1c(C(=O)NCc2ccc(F)cc2F)c(=O)n(O)c2ncc(CCCCCCO)cc12 [XZ426, 4-Amino-N-(2,4-difluorobenzyl)-1-hydroxy-6-(6-hydroxyhexyl)-2-oxo-1,2-dihydro-1,8-naphthyridine-3-carboxamide]",0.8 ± 0.2 nM,–,–,–,–,–,–,–,–,0.5 nM,2.1 nM,2.7 nM,9.4 nM,0.74 nM,1.6 nM,5.2 nM
"CC(=O)OCCCc1cnc2c(c1)c(N)c(C(=O)NCc1ccc(F)cc1F)c(=O)n2O [XZ424, 3-(5-Amino-6-((2,4-difluorobenzyl)carbamoyl)-8-hydroxy-7-oxo-7,8-dihydro-1,8-naphthyridin-3-yl)propyl acetate]",–,–,–,–,–,–,–,–,–,0.75 nM,2.93 nM,5.4 nM,13 nM,1.2 nM,0.8 nM,3.9 nM
"Nc1c(C(=O)NCc2ccc(F)cc2F)c(=O)n(O)c2ncc(CCCO)cc12 [XZ423, 4-Amino-N-(2,4-difluorobenzyl)-1-hydroxy-6-(3-hydroxypropyl)-2-oxo-1,2-dihydro-1,8-naphthyridine-3-carboxamide]",–,–,–,–,–,–,–,–,–,1.1 nM,2.8 nM,8.5 nM,13.4 nM,4.8 ± 2 nM,2.6 nM,14.7 nM
"CC(=O)OCCNc1c(C(=O)NCc2ccc(F)cc2F)c(=O)n(O)c2ncccc12 [XZ402, 2-((3-((2,4-difluorobenzyl)carbamoyl)-1-hydroxy-2-oxo-1,2-dihydro-1,8-naphthyridin-4-yl)amino)ethyl acetate]",2.2 ± 0.3 nM,1 nM,4.8 ± 2.9 nM,3.1 ± 0.3 nM,35.1 ± 13.6 nM,–,–,–,–,–,–,–,–,–,–,–
"O=C(NCc1ccc(F)cc1F)c1c(O)c2c(CO)ccnc2n(O)c1=O [XZ440, N-(2,4-Difluorobenzyl)-1,4-dihydroxy-5-(hydroxymethyl)-2-oxo-1,2-dihydro-1,8-naphthyridine-3-carboxamide]",–,–,–,–,–,–,–,–,–,1.4 nM,2.6 nM,14.9 nM,14.7 nM,4 ± 0.6 nM,5 nM,9 ± 0.6 nM
"C[C@@H]1CCO[C@H]2Cn3cc(C(=O)NCc4ccc(F)cc4F)c(=O)c(O)c3C(=O)N12 [DTG, dolutegravir, reference compound]",–,–,–,–,–,–,–,–,–,0.9 nM,4.3 nM,3.6 nM,5.8 nM,2.3 nM,3.2 nM,16 nM
"O=C(NCc1ccc(F)cc1F)c1c(NCCO)c2cc(CCCCCO)cnc2n(O)c1=O [XZ437, N-(2,4-Difluorobenzyl)-1-hydroxy-4-((2-hydroxyethyl)amino)-6-(5-hydroxypentyl)-2-oxo-1,2-dihydro-1,8-naphthyridine-3-carboxamide]",–,–,–,–,–,–,–,–,–,1.9 nM,11.6 nM,15 nM,15.5 nM,6.5 nM,10.8 nM,30.9 nM
"Nc1c(C(=O)NCc2ccc(F)cc2F)c(=O)n(O)c2ncc(CCCCCCCCO)cc12 [XZ433, 4-Amino-N-(2,4-difluorobenzyl)-1-hydroxy-6-(8-hydroxyoctyl)-2-oxo-1,2-dihydro-1,8-naphthyridine-3-carboxamide]",–,–,–,–,–,–,–,–,–,1.7 nM,3.2 nM,6.5 nM,7.7 nM,2.6 nM,4.8 nM,22.4 nM
"Nc1c(C(=O)NCc2ccc(F)cc2F)c(=O)n(O)c2ncc(CCCCCO)cc12 [XZ419, 4-Amino-N-(2,4-difluorobenzyl)-1-hydroxy-6-(5-hydroxypentyl)-2-oxo-1,2-dihydro-1,8-naphthyridine-3-carboxamide]",0.93 ± 0.2 nM,2.1 ± 0.4 nM,–,–,–,–,–,–,–,0.93 nM,3 nM,2.4 nM,6.9 nM,3.8 nM,3.8 nM,2.6 nM
"COC(=O)CCc1cnc2c(c1)c(NCCO)c(C(=O)NCc1ccc(F)cc1F)c(=O)n2O [XZ438, Methyl 3-(6-((2,4-difluorobenzyl)carbamoyl)-8-hydroxy-5-((2-hydroxyethyl)amino)-7-oxo-7,8-dihydro-1,8-naphthyridin-3-yl)propanoate]",–,–,–,–,–,–,–,–,–,0.62 nM,3.8 nM,3.9 nM,15.9 nM,2.7 nM,6.9 nM,2.5 nM

# Reference: patent publication US9676771B2, “Compounds for inhibiting drug-resistant strains of HIV-1 integrase” (priority 2013, dated 2017)
